This is an account of results in patent US9783556B2, “Kinase inhibitors” (RESPIVERT LIMITED, priority 2012, dated 2017).

Assay [1] relates to PBMCs. The assay can be described thus: LPS-induced TNFα/IL-8 release in PBMC cells. It counts as cell-based. To be noted: Homo sapiens, LPS-stimulated PBMCs, IL-8, read-out: IC50 Values for Inhibition of Cytokine Release PBMCs IL-8. The method, then: Peripheral blood mononuclear cells (PBMCs) from healthy subjects are separated from whole blood using a density gradient (Lymphoprep, Axis-Shield Healthcare). The PBMCs are seeded in 96 well plates and treated with compounds at the desired concentration for 2 hours before addition of 1 ng/mL LPS (Escherichia Coli 0111:B4 from Sigma Aldrich) for 24 hours under normal tissue culture conditions (37° C., 5% CO2). The supernatant is harvested for determination of IL-8 and TNFα concentrations by sandwich ELISA (Duo-set, R&D systems) and read on the fluorescence microplate reader (Varioskan® Flash, ThermoFisher Scientific). The concentration at 50% inhibition (IC50) of IL-8 and TNFα production is calculated from the dose response curve.

For a further assay, the target named is GSK 3α (Homo sapiens (Human), UniProt P49840). Briefly: GSK 3α enzyme inhibition (Z-LYTE FRET). It counts as biochemical. To be noted: read-out: IC50 Values for Enzyme Inhibition GSK3α. As for the experimental part: (§1) The enzyme inhibitory activities of compounds disclosed herein are determined by FRET using synthetic peptides labelled with both donor and acceptor fluorophores (Z-LYTE, Invitrogen Ltd., Paisley, UK).
The following two assay variants can be used for determination of GSK 3α inhibition.
The inhibitory activities of compounds of the invention against the GSK 3α enzyme isoform (Invitrogen), are evaluated by determining the level of activation/phosphorylation of the target peptide. The GSK3-α protein (500 ng/mL, 2.5 μL) is mixed with the test compound (2.5 μL at either 4 μg/mL, 0.4 μg/mL, 0.04 μg/mL, or 0.004 μg/mL) for 2 hr at RT. The FRET peptide (8 μM, 2.5 μL), which is a phosphorylation target for GSK3α, and ATP (40 μM, 2.5 μL) are then added to the enzyme/compound mixture and the resulting mixture incubated for 1 hr. Development reagent (protease, 5 μL) is added for 1 hr prior to detection in a fluorescence microplate reader (Varioskan® Flash, ThermoFisher Scientific).
(§2) In all cases, the site-specific protease cleaves non-phosphorylated peptide only and eliminates the FRET signal. Phosphorylation levels of each reaction are calculated using the ratio of coumarin emission (donor) over fluorescein emission (acceptor), for which high ratios indicate high phosphorylation and low ratios indicate low phosphorylation levels. The percentage inhibition of each reaction is calculated relative to non-inhibited control and the 50% inhibitory concentration (IC50 value) is then calculated from the concentration-response curve.
This method follows the same steps as Method 1 above, but utilises a shorter period of mixing of the test compound (105 minutes instead of 2 hours) with the GSK3-α protein.

The target in a further assay is Syk (Homo sapiens (Human), UniProt P43405). Briefly: Syk enzyme inhibition (Z-LYTE FRET). It counts as biochemical. The method, then:
as §1
(§3) The inhibitory activities of compounds of the invention against c-Src and Syk enzymes (Invitrogen), are evaluated in a similar fashion to that described hereinabove. The relevant enzyme (3000 ng/mL or 2000 ng/mL respectively, 2.5 μL) is incubated with the test compound (either 4 μg/mL, 0.4 μg/mL, 0.04 μg/mL, or 0.004 μg/mL, 2.5 μL each) for 2 hr at RT. The FRET peptides (8 μM, 2.5 μL), and appropriate ATP solutions (2.5 μL, 800 μM for c-Src, and 60 μM ATP for Syk) are then added to the enzymes/compound mixtures and incubated for 1 hr. Development reagent (protease, 5 μL) is added for 1 hr prior to detection in a fluorescence microplate reader (Varioskan® Flash, ThermoFisher Scientific).
as §2

A further assay concerns the target c-Src (Homo sapiens (Human), UniProt P12931). Briefly: c-Src enzyme inhibition (Z-LYTE FRET). It counts as biochemical. The method, then:
as §1, §3, §2

The target in assay [2] is p38 MAPKα isoform (MAPK14) (Homo sapiens (Human), UniProt Q16539). The assay can be described thus: p38 MAPKα enzyme inhibition (Z-LYTE FRET). It counts as biochemical. The method, then: as §1
The following two assay variants can be used for determination of p38 MAPKα inhibition.
The inhibitory activities of test compounds against the p38 MAPKα isoform (MAPK14: Invitrogen), are evaluated indirectly by determining the level of activation/phosphorylation of the down-stream molecule, MAPKAP-K2. The p38 MAPKα protein (80 ng/mL, 2.5 μL) is mixed with the test compound (2.5 μL of either 4 μg/mL, 0.4 μg/mL, 0.04 μg/mL or 0.004 μg/mL) for 2 hr at RT. […] The mixture is incubated for 1 hr at RT. Development reagent (protease, 5 μL) is added for 1 hr prior to detection in a fluorescence microplate reader (Varioskan® Flash, ThermoFisher Scientific).
This method follows the same steps as Method 1 above, but utilises a higher concentration of the p38 MAPKα protein (2.5 μL of 200 ng/mL protein instead of 2.5 μL of 80 ng/mL protein) for mixing with the test compound.
as §2

For assay [3], the system named is PBMCs. The assay can be described thus: IL-2 and IFN gamma release in CD3/CD28 stimulated PBMC cells. It counts as cell-based. To be noted: Homo sapiens, IL-2, read-out: IC50 Values for Inhibition of Cytokine Release PBMCs IL-2. As for the experimental part: PBMCs from healthy subjects are separated from whole blood using a density gradient (Lymphoprep, Axis-Shield Healthcare). Cells are added to a 96 well plate pre-coated with a mixture of CD3/CD38 monoclonal antibodies (0.3 μg/mL eBioscience and 3 μg/mL BD Pharmingen respectively). Compound at the desired concentration is then added to the wells and the plate left for 3 days under normal tissue culture conditions. Supernatants are harvested and IL-2 and IFN gamma release determined by Sandwich ELISA (Duo-set, R&D System). The IC50 is determined from the dose response curve.

Another assay deals with HT29 cells. The assay can be described thus: IL-1β-induced IL-8 release in HT29 cells. To be noted: Homo sapiens, HT-29, IL-1β-stimulated HT29 cells, read-out: IC50 Values for Inhibition of Cytokine Release HT29 cells IL-8. It counts as cell-based. The method, then: HT29 cells, a human colon adenocarcinoma cell line, are plated in a 96 well plate (24 hrs) and pre-treated with compounds at the desired concentration for 2 hours before addition of 5 ng/mL of IL-1β (Abcam) for 24 hours. Supernatants are harvested for IL-8 quantification by Sandwich ELISA (Duo-set, R&D System). The IC50 is determined from the dose response curve.

Sequence of c-Src (P12931 whole entry, looked up): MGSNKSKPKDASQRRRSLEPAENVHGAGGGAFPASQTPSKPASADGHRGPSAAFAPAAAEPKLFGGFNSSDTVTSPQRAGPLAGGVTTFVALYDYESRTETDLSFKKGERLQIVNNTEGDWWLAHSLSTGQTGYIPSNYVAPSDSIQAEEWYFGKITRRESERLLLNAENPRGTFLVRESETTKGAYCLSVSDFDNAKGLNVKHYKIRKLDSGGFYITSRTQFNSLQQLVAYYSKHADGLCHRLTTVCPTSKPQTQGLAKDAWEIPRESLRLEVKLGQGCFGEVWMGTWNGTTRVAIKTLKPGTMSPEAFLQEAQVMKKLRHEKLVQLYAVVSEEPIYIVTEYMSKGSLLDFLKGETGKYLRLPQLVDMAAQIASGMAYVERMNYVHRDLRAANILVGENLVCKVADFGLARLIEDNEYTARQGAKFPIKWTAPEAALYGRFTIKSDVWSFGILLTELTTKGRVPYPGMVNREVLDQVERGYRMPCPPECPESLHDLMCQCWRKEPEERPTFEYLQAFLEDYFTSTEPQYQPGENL
Sequence of p38 MAPKα isoform (MAPK14) (Q16539 whole entry, canonical isoform): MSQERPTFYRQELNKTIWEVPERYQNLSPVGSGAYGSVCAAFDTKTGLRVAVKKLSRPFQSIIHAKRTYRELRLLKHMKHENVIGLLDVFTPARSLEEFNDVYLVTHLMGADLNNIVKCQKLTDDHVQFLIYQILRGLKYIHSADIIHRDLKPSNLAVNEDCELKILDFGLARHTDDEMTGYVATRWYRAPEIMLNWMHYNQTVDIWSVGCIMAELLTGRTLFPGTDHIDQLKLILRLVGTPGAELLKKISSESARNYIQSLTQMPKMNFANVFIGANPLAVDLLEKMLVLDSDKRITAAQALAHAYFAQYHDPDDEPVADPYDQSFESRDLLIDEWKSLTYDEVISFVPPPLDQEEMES
Sequence of GSK 3α (P49840 whole entry): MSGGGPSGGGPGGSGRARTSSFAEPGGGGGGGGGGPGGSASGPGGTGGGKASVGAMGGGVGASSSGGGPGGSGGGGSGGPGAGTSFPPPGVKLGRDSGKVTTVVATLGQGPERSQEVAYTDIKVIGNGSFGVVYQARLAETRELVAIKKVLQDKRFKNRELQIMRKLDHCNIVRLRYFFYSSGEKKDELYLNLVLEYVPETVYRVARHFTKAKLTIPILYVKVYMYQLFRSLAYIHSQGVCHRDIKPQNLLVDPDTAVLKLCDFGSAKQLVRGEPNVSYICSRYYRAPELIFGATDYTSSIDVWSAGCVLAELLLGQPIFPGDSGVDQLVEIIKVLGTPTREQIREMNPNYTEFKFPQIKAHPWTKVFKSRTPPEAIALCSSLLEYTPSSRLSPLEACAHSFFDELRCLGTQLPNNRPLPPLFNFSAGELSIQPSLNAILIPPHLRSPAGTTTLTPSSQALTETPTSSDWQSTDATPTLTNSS

For orientation: IC50 means the point on the concentration scale where inhibition reaches its midpoint. Turning to `CC[Si](CC)(CC)c1cc(NC(=O)Nc2ccc(Oc3ccnc(Nc4ccccc4)n3)c3ccccc23)n(-c2ccc(C)cc2)n1` [Example 4, 1-(4-((2-(phenylamino)pyrimidin-4-yl)oxy)naphthalen-1-yl)-3-(1-(p-tolyl)-3-(triethylsilyl)-1H-pyrazol-5-yl)urea], the figures for the IC50 with PBMCs [1] and at GSK 3α were 95.9 nM and greater than 10 µM, respectively.
For the compound `Cc1ccc(-n2nc([Si](C)(C)C(C)(C)C)cc2NC(=O)Nc2ccc(Oc3ccnc(Nc4ccccc4)n3)c3ccccc23)cc1` [Example 5, 1-(3-(tert-Butyldimethylsilyl)-1-(p-tolyl)-1H-pyrazol-5-yl)-3-(4-((2-(phenylamino)pyrimidin-4-yl)oxy)naphthalen-1-yl)urea], the values for the IC50 with PBMCs [1] and on GSK 3α were 113 nM and 5.01 µM, respectively.
Consider `Cc1ccc(-n2nc([Si](C)(C)C)cc2NC(=O)Nc2ccc(Oc3ccnc(Nc4ccc5onc(N)c5c4)n3)c3ccccc23)cc1` [Example 8, 1-(4-((2-((3-Aminobenzo[d]isoxazol-5-yl)amino)pyrimidin-4-yl)oxy)naphthalen-1-yl)-3-(1-(p-tolyl)-3-(trimethylsilyl)-1H-pyrazol-5-yl)urea], for which the IC50 was 3.9 nM in the assay with PBMCs [1]; 2.15 µM on GSK 3α; 269 nM at Syk; 37 nM at c-Src; greater than 1000 nM in assay [2].
In the case of `Cc1ccc(-n2nc([Si](C)(C)C)cc2NC(=O)Nc2ccc(Oc3ccnc(Nc4cccc(OCCN(C)C)c4)n3)c3ccccc23)cc1` [Example 11, 1-(4-((2-((3-(2-(Dimethylamino)ethoxy)phenyl)amino)pyrimidin-4-yl)oxy)naphthalen-1-yl)-3-(1-(p-tolyl)-3-(trimethylsilyl)-1H-pyrazol-5-yl)urea], the IC50 with PBMCs [1] was 1.4 nM; at GSK 3α, 0.69 µM.
`COc1cc(Nc2nccc(Oc3ccc(NC(=O)Nc4cc([Si](C)(C)C)nn4-c4ccc(C)cc4)c4ccccc34)n2)cc(C(=O)NCCN2CCOCC2)c1` [Example 12, 3-Methoxy-N-(2-morpholinoethyl)-5-((4-((4-(3-(1-(p-tolyl)-3-(trimethylsilyl)-1H-pyrazol-5-yl)ureido)naphthalen-1-yl)oxy)pyrimidin-2-yl)amino)benzamide]: the IC50 was 0.9 nM in the assay on PBMCs [1]; 1.92 µM on GSK 3α; 17 nM on Syk; 10 nM against c-Src; 28.2 nM in the assay on PBMCs [3]; 142 nM in assay [2].
Turning to `Cc1ccc(-n2nc([Si](C)(C)C)cc2NC(=O)Nc2ccc(Oc3ccnc(Nc4ccccn4)n3)c3ccccc23)cc1` [Example 14, 1-(4-((2-(pyridin-2-ylamino)pyrimidin-4-yl)oxy)naphthalen-1-yl)-3-(1-(p-tolyl)-3-(trimethylsilyl)-1H-pyrazol-5-yl)urea], the 50% inhibitory concentration (IC50) is 36.6 nM with PBMCs [1], greater than 10 µM on GSK 3α, greater than 1000 nM at Syk and 360 nM at c-Src.
Take `Cc1cc(Nc2nccc(Oc3ccc(NC(=O)Nc4cc([Si](C)(C)C)nn4-c4ccc(OCCN5CCOCC5)cc4)c4ccccc34)n2)cc2cn[nH]c12` [Example 15, 1-(4-((2-((7-Methyl-1H-indazol-5-yl)amino)pyrimidin-4-yl)oxy)naphthalen-1-yl)-3-(1-(4-(2-morpholinoethoxy)phenyl)-3-(trimethylsilyl)-1H-pyrazol-5-yl)urea]: the half-maximal inhibitory concentration (IC50) in the assay on PBMCs [1] is 2.2 nM; on GSK 3α it was 3.49 µM; against Syk, 24 nM; at c-Src, 15 nM; in the assay with HT29 cells, 6.5 nM; in the assay with PBMCs [3] it was 30.7 nM. This compound also had an IC50 in assay [2] of 253 nM.
Take `CC[Si](C)(C)c1cc(NC(=O)Nc2ccc(Oc3ccnc(Nc4ccccc4)n3)c3ccccc23)n(-c2ccc(C)cc2)n1` [Example 16, 1-(3-(Ethyldimethylsilyl)-1-(p-tolyl)-1H-pyrazol-5-yl)-3-(4-((2-(phenylamino)pyrimidin-4-yl)oxy)naphthalen-1-yl)urea]: the half-inhibitory concentration (IC50) was 14.8 nM in the assay on PBMCs [1], greater than 10 µM on GSK 3α, greater than 1000 nM at Syk and 116 nM against c-Src.
In the case of `Cc1ccc(-n2nc([Si](C)(C)C)cc2NC(=O)Nc2ccc(Oc3ccnc(Nc4cc(C)c5[nH]ncc5c4)n3)c(Cl)c2Cl)cc1` [Example 17, 1-(2,3-Dichloro-4-((2-((7-methyl-1H-indazol-5-yl)amino)pyrimidin-4-yl)oxy)phenyl)-3-(1-(p-tolyl)-3-(trimethylsilyl)-1H-pyrazol-5-yl)urea], the concentration for half-maximal inhibition (IC50) is 8 nM in the assay on PBMCs [1] and greater than 10 µM on GSK 3α.
`COc1cc(Nc2nccc(Oc3ccc(NC(=O)Nc4cc([Si](C)(C)C)nn4-c4ccc(C)cc4)c(Cl)c3Cl)n2)cc(OCCN2CCOCC2)c1` [Example 18, 1-(2,3-Dichloro-4-((2-((3-methoxy-5-(2-morpholinoethoxy)phenyl)amino)pyrimidin-4-yl)oxy)phenyl)-3-(1-(p-tolyl)-3-(trimethylsilyl)-1H-pyrazol-5-yl)urea]: the IC50 with PBMCs [1] was 2.7 nM; at GSK 3α, greater than 10 µM; on Syk it was 59 nM; on c-Src it was 41 nM; in assay [2], greater than 1000 nM.
For the compound `COc1cc(Nc2nccc(Oc3ccc(NC(=O)Nc4cc([Si](C)(C)C)nn4-c4ccc(C)cc4)c4ccccc34)n2)cc(C(=O)NC[C@H](O)[C@@H](O)[C@H](O)[C@H](O)CO)c1` [Example 19, 3-Methoxy-N-((2S,3R,4R,5R)-2,3,4,5,6-pentahydroxyhexyl)-5-((4-((4-(3-(1-(p-tolyl)-3-(trimethylsilyl)-1H-pyrazol-5-yl)ureido)naphthalen-1-yl)oxy)pyrimidin-2-yl)amino)-benzamide], the IC50 in the assay with PBMCs [1] was found to be 76 nM; on GSK 3α, 6.73 µM.
Consider `Cc1ccc(-n2nc([Si](C)(C)C)cc2NC(=O)Nc2ccc(Oc3ccnc(Nc4ccc5c(c4)CNC5=O)n3)c3ccccc23)cc1` [Example 20, 1-(4-((2-((1-Oxoisoindolin-5-yl)amino)pyrimidin-4-yl)oxy)naphthalen-1-yl)-3-(1-(p-tolyl)-3-(trimethylsilyl)-1H-pyrazol-5-yl)urea], for which the figures for the IC50 in the assay on PBMCs [1] and at GSK 3α were 1.8 nM and 0.345 µM, respectively.
